Data reported in patent publication US6376480B1, “Vitamin D derivatives with substituents at C-25, process for their production, intermediate products and use for the production of pharmaceutical agents” (Schering Aktiengesellschaft, priority 1995, dated 2002).

Tests used:
[1] = tested on: HL 60 cells; assay: differentiation induction of HL 60 cells to macrophages (NBT reduction); format: cell-based, human; conditions: DR = test substance dose/calcitriol dose for comparable semi-maximum effects; 96 hours incubation
Procedure: It is known in the literature (Mangelsdorf, D. J. et al., J. Cell. Biol. 98: 391-398 (1984)), that the treatment of human leukemia cells (promyelocyte cell line HL 60) in vitro with calcitriol induces the differentiation of cells to macrophages.
HL 60 cells are cultivated in tissue culture medium (RPMI 10% fetal calf serum) at 37° C. in an atmosphere of 5% CO2 in air.
For substance testing, the cells are centrifuged off, and 2.0×10^5 cells/ml in phenol red-free tissue culture medium is taken up. The test substances are dissolved in ethanol and diluted with tissue culture medium without phenol red to the desired concentration. The dilution stages are mixed with the cell suspension at a ratio of 1:10, and 100 μl each of this cell suspension that is mixed with substance is pipetted into an indentation of a 96-hole plate. For control, a cell suspension is mixed analogously with the solvent.
After incubation for 96 hours at 37° C. in 5% CO2 in air, 100 μl of an NBT-TPA solution (nitro blue tetrazolium (NBT), final concentration in the batch of 1 mg/ml, tetradecanoyl phorbolmyristate-13-acetate (TPA), final concentration in the batch of 2×10^−7 mol/l) is pipetted into each indentation of the 96-hole plate in the cell suspension.
By incubation for 2 hours at 37° C. and 5% CO2 in air, NBT is reduced to insoluble formazan because of the intracellular oxygen radical release, stimulated by TPA, in the cells that are differentiated to macrophages.
To complete the reaction, the indentations of the 96-hole plate are suctioned off, and the cells are affixed to the bottom of the plate by adding methanol and dried after affixing. To dissolve the intracellular formazan crystals that are formed, 100 μl of potassium hydroxide (2 mol/l) and 100 μl of dimethyl sulfoxide are pipetted into-each indentation and ultrasonically treated for 1 minute. The concentration of formazan is measured by spectrophotometry at 650 nm.
As a yardstick for the differentiation induction of HL 60 cells to macrophages, the concentration of formed formazan applies.

[2] = molecular target: T1, calcitriol receptor (Sus scrofa, UniProt A3RGC1); assay: calcitriol-receptor test (competition with 3H-calcitriol); conditions: quotient of concentrations of test substance and calcitriol for 50% competition, receptor protein from intestines of juvenile pigs
T1 sequence (A3RGC1 1-427): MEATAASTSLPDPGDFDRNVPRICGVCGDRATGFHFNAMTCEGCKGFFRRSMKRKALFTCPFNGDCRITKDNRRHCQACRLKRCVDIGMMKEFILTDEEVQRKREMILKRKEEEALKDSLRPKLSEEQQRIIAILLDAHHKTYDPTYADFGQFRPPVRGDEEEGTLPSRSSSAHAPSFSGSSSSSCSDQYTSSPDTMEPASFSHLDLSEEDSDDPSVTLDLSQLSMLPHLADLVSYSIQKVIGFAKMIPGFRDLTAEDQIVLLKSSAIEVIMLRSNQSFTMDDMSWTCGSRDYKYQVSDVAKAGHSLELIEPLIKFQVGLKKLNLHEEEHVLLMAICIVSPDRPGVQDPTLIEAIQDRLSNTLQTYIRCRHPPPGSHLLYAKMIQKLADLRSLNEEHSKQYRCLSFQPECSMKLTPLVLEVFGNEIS
Procedure: The vitamin D activity of the substances according to the invention is determined with the aid of the calcitriol-receptor test. It is carried out with use of a specific receptor protein from the intestines of juvenile pigs.
Then, the samples are centrifuged at 10,000×g for 5 minutes at 4° C. The supernatant is decanted and measured in a β-counter after 1 hour of equilibration in Picofluor 15™.
The competition curves that are obtained with various concentrations of test substance as well as of reference substance (unlabeled calcitriol) at constant concentration of the reference substance (^3H-calcitriol) are placed in relation to one another and a competition factor (KF) is determined.
It is defined as a quotient of the concentrations of the respective test substance and the reference substance, which are necessary for 50% competition: [formula]

[3] = tested on: HL 60 cells; assay: antagonism of the action of calcitriol in HL 60 cells; format: cell-based, human

| Competition Factor KF for Receptor Bonding [2] | SMILES | Dose Ratio for Differentiation Induction in HL 60 Cells [1] | antagonism of the action of calcitriol in HL 60 cells [3] |
| --- | --- | --- | --- |
| 2 | C=C1/C(=C\C=C2/CCC[C@]3(C)[C@@H]([C@H](C)/C=C/[C@@H](O)C4(C(=O)c5ccccc5)CC4)CC[C@@H]23)C[C@@H](O)C[C@@H]1O [Compound 10b, (5Z,7E,22E)-(1S,3R,24R)-25-benzoyl-26,27-cyclo-9,10-secocholesta-5,7,10(19),22-tetraene-1,3,24-triol] | 6 |  |
| 2 | C=C1/C(=C\C=C2/CCC[C@]3(C)[C@@H]([C@H](C)/C=C/[C@@H](O)C4(C(=O)CCCC)CC4)CC[C@@H]23)C[C@@H](O)C[C@@H]1O [Compound 6b, (5Z,7E,22E)-(1S,3R,24R)-25-(1-Oxopentyl)-26,27-cyclo-9,10-secocholesta-5,7,10(19),22-tetraene-1,3,24-triol] | 58 | antagonize the action of calcitriol |
| 2 | C=C1C(=CC=C2CCCC3(C)C2CCC3C(C)C=CC(O)C2(C(=O)C3CC3)CC2)CC(O)CC1O [Compound 12b, (5Z,7E,22E)-(1S,3R,24R)-25-(Cyclopropylcarbonyl)-26,27-cyclo-9,10-secocholesta-5,7,10(19),22-tetraene-1,3,24-triol] | 0.2 |  |
| 2 | C=C1/C(=C\C=C2/CCC[C@]3(C)[C@@H]([C@H](C)/C=C/[C@@H](O)C4(C(=O)/C=C/CCC)CC4)CC[C@@H]23)C[C@@H](O)C[C@@H]1O [Compound 18b, [5Z,7E,22E,25(E)]-(1S,3R,24R)-25-(1-Oxo-2-hexenyl)-26,27-cyclo-9,10-secocholesta-5,7,10(19),22-tetraene-1,3,24-triol] | 330 | antagonize the action of calcitriol |
| 4 | C=C1/C(=C\C=C2/CCC[C@]3(C)[C@@H]([C@H](C)/C=C/[C@@H](O)C4(/C=C/C(=O)OCC)CC4)CC[C@@H]23)C[C@@H](O)C[C@@H]1O [Compound 24b, [5Z,7E,22E,25(E)]-(1S,3R,24R)-25-(3-Ethoxy-3-oxo-1-propenyl)-26,27-cyclo-9,10-secocholesta-5,7,10(19),22-tetraene-1,3,24-triol] | >1000 | antagonize the action of calcitriol |
| 3 | C=C1/C(=C\C=C2/CCC[C@]3(C)[C@@H]([C@H](C)/C=C/[C@@H](O)C4(C(=O)CCCCC)CC4)CC[C@@H]23)C[C@@H](O)C[C@@H]1O [Compound 9b, (5Z,7E,22E)-(1S,3R,24R)-25-(1-Oxohexyl)-26,27-cyclo-9,10-secocholesta-5,7,10(19),22-tetraene-1,3,24-triol] | >180 | antagonize the action of calcitriol |

The remaining lines, values behind:

| SMILES | Competition Factor KF for Receptor Bonding [2] | Dose Ratio for Differentiation Induction in HL 60 Cells [1] | antagonism of the action of calcitriol in HL 60 cells [3] |
| --- | --- | --- | --- |
| C=C1C(=CC=C2CCCC3(C)C2CCC3C(C)(C)C=CC(O)C2(C(=O)CCC)CC2)CC(O)CC1O [Compound 35a, (5Z,7E,22E)-(1S,3R,24S)-20-methyl-25-(1-oxobutyl)-26,27-cyclo-9,10-secocholesta-5,7,10(19),22-tetraene-1,3,24-triol] | 7 | 0.3 |  |
| CC(=O)C1(C(O)C=CC(C)(C)C2CCC3C(=CC=C4CC(O)CC(O)C4)CCCC32C)CC1 [Compound 81b, (7E,22E)-(1R,3R,24R)-25-acetyl-20-methyl-26,27-cyclo-19-nor-9,10-secocholesta-5,7,22-triene-1,3,24-triol] | 3 | 0.1 |  |
| CC(=O)C1(C(O)C=CC(C)C2CCC3C(=CC=C4CC(O)CC(O)C4)CCCC32C)CC1 [Compound 55b, (7E,22E)-(1R,3R,24R)-25-Acetyl-26,27-cyclo-19-nor-9,10-secocholesta-5,7,22-triene-1,3,24-triol] | 4.5 | 0.2 |  |
| CCCCCC(=O)C1([C@H](O)/C=C/C(C)(C)[C@H]2CC[C@H]3/C(=C/C=C4C[C@@H](O)C[C@H](O)C4)CCC[C@]23C)CC1 [Compound 87b, (7E,22E)-(1R,3R,24R)-20-methyl-25-(1-oxohexyl)-26,27-cyclo-19-nor-9,10-secocholesta-5,7,22-triene-1,3,24-triol] | 3 | 116 | antagonize the action of calcitriol |
| C=C1C(=CC=C2CCCC3(C)C2CCC3C(C)(C)C=CC(O)C2(C(C)=O)CC2)CC(O)CC1O [Compound 33a, (5Z,7E,22E)-(1S,3R,24S)-25-acetyl-20-methyl-26,27-cyclo-9,10-secocholesta-5,7,10(19),22-tetraene-1,3,24-triol] | 4 | 0.5 |  |
| CC(=O)C1(C(O)C=CC(C)(C)C2CCC3C(=CC=C4CC(O)CC(O)C4)CCCC32C)CC1 [Compound 81a, (7E,22E)-(1R,3R,24S)-25-Acetyl-20-methyl-26,27-cyclo-19-nor-9,10-secocholesta-5,7,22-triene-1,3,24-triol] | 10 | 0.2 |  |
| C=C1/C(=C\C=C2/CCC[C@]3(C)[C@@H](C(C)(C)/C=C/[C@@H](O)C4(C(=O)CCCCCCC)CC4)CC[C@@H]23)C[C@@H](O)C[C@@H]1O [Compound 43b, (5Z,7E,22E)-(1S,3R,24R)-20-methyl-25-(1-oxooctyl)-26,27-cyclo-9,10-secocholesta-5,7,10(19),22-tetraene-1,3,24-triol] | 33 | >1000 | antagonize the action of calcitriol |
| C=C1C(=CC=C2CCCC3(C)C2CCC3C(C)(C)C=CC(O)C2(C(=O)CCC)CC2)CC(O)CC1O [Compound 35b, (5Z,7E,22E)-(1S,3R,24R)-20-methyl-25-(1-oxobutyl)-26,27-cyclo-9,10-secocholesta-5,7,10(19),22-tetraene-1,3,24-triol] | 2 | 0.2 |  |
| CCCCC(=O)C1([C@H](O)/C=C/[C@@H](C)[C@H]2CC[C@H]3/C(=C/C=C4C[C@@H](O)C[C@H](O)C4)CCC[C@]23C)CC1 [Compound 58b, (7E,22E)-(1R,3R,24R)-25-(1-Oxopentyl)-26,27-cyclo-19-nor-9,10-secocholesta-5,7,22-triene-1,3,24-triol] | 3 | 160 | antagonize the action of calcitriol |
| C=C1/C(=C\C=C2/CCC[C@]3(C)[C@@H](C(C)(C)/C=C/[C@H](O)C4(C(=O)CCCCCCC)CC4)CC[C@@H]23)C[C@@H](O)C[C@@H]1O [Compound 43a, (5Z,7E,22E)-(1S,3R,24S)-20-methyl-25-(1-oxooctyl)-26,27-cyclo-9,10-secocholesta-5,7,10(19),22-tetraene-1,3,24-triol] | 48 | >1000 | antagonize the action of calcitriol |
| CCCCCC(=O)C1([C@H](O)/C=C/[C@@H](C)[C@H]2CC[C@H]3/C(=C/C=C4C[C@@H](O)C[C@H](O)C4)CCC[C@]23C)CC1 [Compound 61b, (7E,22E)-(1R,3R,24R)-25-(1-Oxohexyl)-26,27-cyclo-19-nor-9,10-secocholesta-5,7,22-triene-1,3,24-triol] | 3 | >1000 | antagonize the action of calcitriol |
| C=C1C(=CC=C2CCCC3(C)C2CCC3C(C)(C)C=CC(O)C2(C(C)=O)CC2)CC(O)CC1O [Compound 33b, (5Z,7E,22E)-(1S,3R,24R)-25-acetyl-20-methyl-26,27-cyclo-9,10-secocholesta-5,7,10(19),22-tetraene-1,3,24-triol] | 4 | 0.4 |  |
